Measured values from patent US20260102418A1, “An anti-influenza virus derivative and uses thereof” (Shijiazhuang Discovery Medicine Technology Co., Ltd., priority 2022, published 2026).
Entries after “also recorded” stand apart in the source; their conditions may differ. Read-outs that look alike come from different tables or passages of the source.

How the values were obtained:
[1] = system: influenza virus (A/HPB/359/95 (H3N2)); experiment: organism not typed; conditions: MDCK, read-out: Anti-IAV EC50
[2] = Cytotoxicity test in MDCK cells (CPE method, 72 hours); conditions: dog
A/PR/8/34 (H1N1) virus = experiment: Virus titer test and histopathological examination in influenza virus mouse model; assay type: in vivo, C57BL/6J mice; conditions: for lung tissue pathology examination: left lung 5 days after infection
Experimental: Fifteen C57BL/6J mice (female, 8 weeks, 18-20 g) were divided into 5 groups (group A, group B, group C, group D and group E), 3 in each group. After intranasal inoculation with a semi-lethal dose of A/PR/8/34 (H1N1) virus, group A/group B/group C were respectively given intragastric administration of test drugs (group A: DS1494; group B: DS1833; group C: M42, all suspended in 1% methylcellulose solution, and the dosage of each group was 2 mg/kg), group D was given oral gavage with the same volume of 1% methylcellulose solution, and group E was given intraperitoneal injection of test drug DS1835 (the dosage was 1.4 mg/kg, dissolved in physiological saline), and each group was given drug administration once a day. Lung tissue samples were collected 5 days after infection, the left lung was examined for pathology, and the right lung was homogenized for TCID50 determination.

A/WSN/33 (H1N1) = experiment: Antiviral CPE assay in MDCK, other influenza strains; assay type: cell-based, influenza A virus (IAV); conditions: Influenza A virus, CPE method
[3] = system: B/Massachusetts/2/2012 (BY-3); experiment: as above; assay type: cell-based; conditions: Influenza B virus
A/PR/8/34 (H1N1) (PR8) = experiment: as above; assay type: cell-based, influenza A virus (IAV); conditions: Influenza A virus, CPE method
[4] = system: B/Beijing-Haidian/1386/2013 (BV); experiment: as above; assay type: cell-based; conditions: Influenza B virus, CPE method
in vitro = conditions: dog
[5] = system: influenza virus (A/HPB/359/95 (H3N2))
MDCK cells = experiment: Cytotoxicity test in MDCK cells (CPE method, 72 hours); conditions: read-out: TC50 in MDCK; MDCK cells, 72 hours, CPE method
[6] = 2 mg/kg intragastric once a day
[7] = PR8 = A/Puerto Rico/8/1934(H1N1), MDCK
[8] = HD = B/Beijing-Haidian/1386/2013 (BV)

Molecule	EC50 [1]	CC50 (in vitro)	further results
O=C1c2c(O)c(=O)ccn2N([C@@H]2c3ccccc3SCc3c2ccc(F)c3F)[C@@H]2COC3(CC3)CN12 [Compound M41, reference compound]	0.63 ± 0.03 nM	–	CC50 at 72 h ([2]; MDCK cells): > 20000 nM
COC(=O)OCOc1c2n(ccc1=O)N([C@@H]1c3ccccc3SCc3c1ccc(F)c3F)[C@@H]1COC3(CC3)CN1C2=O [Compound M42, reference compound]	0.76 ± 0.04 nM	> 20000 nM	lung tissue pathology examination (A/PR/8/34 (H1N1) virus; [6]): clear bronchial structure, and the epithelial cells were arranged neatly with a small amount of inflammatory cell infiltration; also recorded: a small amount of epithelial cell necrosis was observed; EC50 (A/WSN/33 (H1N1)): 0.00228 ± 0.00042 µM; EC50 ([3]; MDCK): 0.00724 ± 0.00136 µM; EC50 (A/PR/8/34 (H1N1) (PR8); [7]): 0.00193 ± 0.00055 µM; EC50 [4, 8]: 0.00621 ± 0.00109 µM
COC(=O)OCOc1c2n(ccc1=O)N([C@@H]1c3ccccc3[Se]Cc3c1ccc(F)c3F)[C@@H]1COCCN1C2=O [Compound M43, reference compound]	–	–	EC50 ([3]; MDCK): 0.0113 ± 0.00253 µM; EC50 [4, 8]: 0.00839 ± 0.00175 µM
O=C1c2c(O)c(=O)ccn2N([C@@H]2c3ccccc3[Se]Cc3c2ccc(F)c3F)[C@@H]2COC3(CC3)CN12 [DS1491]	0.2 ± 0.01 nM	> 20000 nM	therapeutic index (TC50/EC50) [5]: higher therapeutic index
[2H][C@@]1(N2[C@@H]3COC4(CC4)CN3C(=O)c3c(O)c(=O)ccn32)c2ccccc2[Se]Cc2c1ccc(F)c2F [DS1492]	0.14 ± 0.03 nM	> 20000 nM	–
C[C@@]1(N2[C@@H]3COC4(CC4)CN3C(=O)c3c(O)c(=O)ccn32)c2ccccc2[Se]Cc2c1ccc(F)c2F [DS1493]	0.1 ± 0.01 nM	> 20000 nM	therapeutic index (TC50/EC50) [5]: higher therapeutic index
[2H][C@@]1(N2[C@@H]3COC4(CC4)CN3C(=O)c3c(OCOC(=O)OC)c(=O)ccn32)c2ccccc2[Se]Cc2c1ccc(F)c2F [DS1495]	0.28 ± 0.03 nM	> 20000 nM	–
COC(=O)OCOc1c2n(ccc1=O)N([C@]1(C)c3ccccc3[Se]Cc3c1ccc(F)c3F)[C@@H]1COC3(CC3)CN1C2=O [DS1496]	0.43 ± 0.02 nM	> 20000 nM	–
O=C1c2c(OCOP(=O)(O)O)c(=O)ccn2N([C@@H]2c3ccccc3[Se]Cc3c2ccc(F)c3F)[C@@H]2COC3(CC3)CN12 [DS1497]	0.37 ± 0.04 nM	> 20000 nM	–
[2H][C@@]1(N2[C@@H]3COC4(CC4)CN3C(=O)c3c(OCOP(=O)(O)O)c(=O)ccn32)c2ccccc2[Se]Cc2c1ccc(F)c2F [DS1498]	0.31 ± 0.02 nM	–	CC50 at 72 h [2]: > 20000 nM
C[C@@]1(N2[C@@H]3COC4(CC4)CN3C(=O)c3c(OCOP(=O)(O)O)c(=O)ccn32)c2ccccc2[Se]Cc2c1ccc(F)c2F [DS1499]	0.29 ± 0.02 nM	> 20000 nM	–
CCOP(=O)(OCC)OCOc1c2n(ccc1=O)N([C@@H]1c3ccccc3[Se]Cc3c1ccc(F)c3F)[C@@H]1COC3(CC3)CN1C2=O [DS1831]	0.19 ± 0.02 nM	> 20000 nM	–
O=C1c2c(OCOP(=O)(OCc3ccccc3)OCc3ccccc3)c(=O)ccn2N([C@@H]2c3ccccc3[Se]Cc3c2ccc(F)c3F)[C@@H]2COC3(CC3)CN12 [DS1832]	0.21 ± 0.03 nM	> 20000 nM	–
[2H]C([2H])([2H])OC(=O)OCOc1c2n(ccc1=O)N([C@@H]1c3ccccc3[Se]Cc3c1ccc(F)c3F)[C@@H]1COC3(CC3)CN1C2=O [DS1833]	0.11 ± 0.02 nM	> 20000 nM	lung tissue pathology examination (A/PR/8/34 (H1N1) virus; [6]): clear bronchial structure, and the epithelial cells were arranged neatly with a small amount of inflammatory cell infiltration; lung tissue virus titers compared with M42 at the same dose (A/PR/8/34 (H1N1) virus; 2 mg/kg intragastric once a day, right lung TCID50 5 days after infection): lower; EC50 (A/WSN/33 (H1N1)): 0.00102 ± 0.00027 µM; EC50 ([3]; MDCK): 0.00277 ± 0.00075 µM; EC50 (A/PR/8/34 (H1N1) (PR8); [7]): 0.00089 ± 0.00022 µM; EC50 [4, 8]: 0.00338 ± 0.00067 µM
[2H]C([2H])([2H])OC(=O)OCOc1c2n(ccc1=O)N([C@]1([2H])c3ccccc3[Se]Cc3c1ccc(F)c3F)[C@@H]1COC3(CC3)CN1C2=O [DS1834]	0.1 ± 0.01 nM	> 20000 nM	–
O=C1c2c(O)c(=O)ccn2N([C@@H]2c3ccccc3[Se]Cc3c2ccc(F)c3F)[C@@H]2COC3(CC3)CN12 [DS1835]	–	–	lung tissue pathology examination (A/PR/8/34 (H1N1) virus; 1.4 mg/kg intraperitoneal injection once a day): clear bronchial structure, and the epithelial cells had complete morphology and neat arrangement; lung tissue virus titer (A/PR/8/34 (H1N1) virus; 1.4 mg/kg intraperitoneal injection once a day, right lung TCID50 5 days after infection): lowest lung tissue virus titer
[2H]C([2H])([2H])OC(=O)OCOc1c2n(ccc1=O)N([C@@H]1c3ccccc3SCc3c1ccc(F)c3F)[C@@H]1COC3(CC3)CN1C2=O [DS1837]	0.65 ± 0.03 nM	–	EC50 (A/WSN/33 (H1N1)): 0.00136 ± 0.00022 µM; EC50 ([3]; MDCK): 0.00588 ± 0.00091 µM; EC50 (A/PR/8/34 (H1N1) (PR8); [7]): 0.00126 ± 0.00047 µM; EC50 [4, 8]: 0.00565 ± 0.00073 µM; CC50 at 72 h (in vitro): > 20000 nM
[2H]C([2H])([2H])OC(=O)OCOc1c2n(ccc1=O)N([C@]1([2H])c3ccccc3SCc3c1ccc(F)c3F)[C@@H]1COC3(CC3)CN1C2=O [DS1838]	0.52 ± 0.04 nM	–	CC50 at 72 h (in vitro): > 20000 nM
O=C1c2c(OP(=O)(O)O)c(=O)ccn2N([C@@H]2c3ccccc3[Se]Cc3c2ccc(F)c3F)[C@@H]2COC3(CC3)CN12 [DS14910]	0.21 ± 0.02 nM	> 20000 nM	–
[2H][C@@]1(N2[C@@H]3COC4(CC4)CN3C(=O)c3c(OP(=O)(O)O)c(=O)ccn32)c2ccccc2[Se]Cc2c1ccc(F)c2F [DS14911]	0.19 ± 0.03 nM	> 20000 nM	–
C[C@@]1(N2[C@@H]3COC4(CC4)CN3C(=O)c3c(OP(=O)(O)O)c(=O)ccn32)c2ccccc2[Se]Cc2c1ccc(F)c2F [DS14912]	0.17 ± 0.01 nM	> 20000 nM	–
O=C1c2c(OCOP(=O)(O)O)c(=O)ccn2N([C@@H]2c3ccccc3[Se]Cc3c2ccc(F)c3F)[C@@H]2COC3(CC3)CN12 [DS14915]	–	–	EC50 (A/WSN/33 (H1N1)): 0.00113 ± 0.00031 µM; EC50 ([3]; MDCK): 0.00218 ± 0.00056 µM; EC50 (A/PR/8/34 (H1N1) (PR8); [7]): 0.00097 ± 0.00036 µM; EC50 [4, 8]: 0.00247 ± 0.00048 µM
O=C1c2c(OCOP3(=O)OCCCO3)c(=O)ccn2N([C@@H]2c3ccccc3[Se]Cc3c2ccc(F)c3F)[C@@H]2COC3(CC3)CN12 [DS15812]	0.25 ± 0.03 nM	> 20000 nM	–
NC(=O)c1ncn([C@@H]2O[C@H](CO)[C@@H](O)[C@H]2O)n1 [Ribavirin, reference compound]	–	–	EC50 (A/WSN/33 (H1N1); Ribavirin in μM): 27.2 ± 2.79 µM; EC50 ([3]; BY-3, MDCK, CPE method, Ribavirin in μM, read-out: EC50): 33.1 ± 3.29 µM; EC50 (A/PR/8/34 (H1N1) (PR8); PR8, MDCK, Ribavirin in μM): 29.6 ± 3.11 µM; EC50 ([4]; HD, Ribavirin in μM): 34.5 ± 4.85 µM
Baricitinib	–	–	CC50 (MDCK cells): > 20000 nM
